The values that follow come from US6335347B1, “Ethyl 4-(8-chloro-5,6-dihydro-11 H-benzo[5,6]cyclohepta[1,2-b]pyridin-11-ylidene)-1-piperidene carboxylate polymorph” (Schering Corporation, priority 1997, dated 2002).

The subject of this experiment is monkey model. Briefly: Antihistaminic activity in a monkey model.

For the compound `CCOC(=O)N1CCC(=C2c3ccc(Cl)cc3CCc3cccnc32)CC1` [polymorph form 2 loratadine, ethyl 4-(8-chloro-5,6,-dihydro-11H-benzo[5,6]cyclohepta[1,2-b]pyridin-11-ylidene)-1-piperidene carboxylate], the Antihistaminic activity entry is “demonstrated”.
